Calls of active or inactive are those of the source.
What was measured:
H9c2 = assay: cells; assay type: functional, cell-based; conditions: Rattus norvegicus, H9c2, Myocardium;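 further: confirmatory concentration-response retest of ultra-high-throughput screening hits for modulation of myocardial damage; cell death induced by hydrogen peroxide oxidative stress; compound pretreatment for 60 min then peroxide exposure for 2 h; potency is for protecting the cells against peroxide damage rather than for killing them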
[1] = OVCAR8 cell viability loss – plate reader, dry powder samples, PAX8 project, dose response (AID 743197); assay type: functional, cell-based; conditions: OVCAR-8
[2] = OVCAR-3 cell viability loss – plate reader, dry powder samples, PAX8 inhibitor project, dose response (AID 743044); assay type: functional, cell-based
Paired box protein Pax-8 = Paired box protein Pax-8 (Homo sapiens, UniProt Q06710); assay: PAX8 transcriptional activity inhibition in RMG-I – RMG-I cells, luciferase, cherry-pick, dose response (AID 687027); assay type: functional, cell-based;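 further: luciferase reporter driven by Pax8 target thyroperoxidase promoter measured by SteadyGlo luminescence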
[3] = tested on: Streptococcus sp. 'group A'; assay: Streptococcus pyogenes SK(-)GAS viability under kanamycin – luminescence, BacTiterGlo, confirmation, counter-screen for streptokinase expression inhibitor project, dose response (AID 1900); assay type: functional, organism-based
Streptococcus = assay: GAS UMAA2166 growth inhibition – luminescence, BacTiterGlo, counter-screen for streptokinase expression inhibitor project, dose response (AID 1915); assay type: functional, organism-based;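 further: potency for reduction of bacterial viability or growth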
[4] = biological target: T1, Short transient receptor potential channel 4 (Mus musculus, UniProt Q9QUQ5); assay: calcium entry via TRPC4 opening agents – cell-based, HEK293 TRPC4/mu-opioid, Fluo-4 calcium, dose response (AID 434937); assay type: functional
T1 sequence (Q9QUQ5 whole entry): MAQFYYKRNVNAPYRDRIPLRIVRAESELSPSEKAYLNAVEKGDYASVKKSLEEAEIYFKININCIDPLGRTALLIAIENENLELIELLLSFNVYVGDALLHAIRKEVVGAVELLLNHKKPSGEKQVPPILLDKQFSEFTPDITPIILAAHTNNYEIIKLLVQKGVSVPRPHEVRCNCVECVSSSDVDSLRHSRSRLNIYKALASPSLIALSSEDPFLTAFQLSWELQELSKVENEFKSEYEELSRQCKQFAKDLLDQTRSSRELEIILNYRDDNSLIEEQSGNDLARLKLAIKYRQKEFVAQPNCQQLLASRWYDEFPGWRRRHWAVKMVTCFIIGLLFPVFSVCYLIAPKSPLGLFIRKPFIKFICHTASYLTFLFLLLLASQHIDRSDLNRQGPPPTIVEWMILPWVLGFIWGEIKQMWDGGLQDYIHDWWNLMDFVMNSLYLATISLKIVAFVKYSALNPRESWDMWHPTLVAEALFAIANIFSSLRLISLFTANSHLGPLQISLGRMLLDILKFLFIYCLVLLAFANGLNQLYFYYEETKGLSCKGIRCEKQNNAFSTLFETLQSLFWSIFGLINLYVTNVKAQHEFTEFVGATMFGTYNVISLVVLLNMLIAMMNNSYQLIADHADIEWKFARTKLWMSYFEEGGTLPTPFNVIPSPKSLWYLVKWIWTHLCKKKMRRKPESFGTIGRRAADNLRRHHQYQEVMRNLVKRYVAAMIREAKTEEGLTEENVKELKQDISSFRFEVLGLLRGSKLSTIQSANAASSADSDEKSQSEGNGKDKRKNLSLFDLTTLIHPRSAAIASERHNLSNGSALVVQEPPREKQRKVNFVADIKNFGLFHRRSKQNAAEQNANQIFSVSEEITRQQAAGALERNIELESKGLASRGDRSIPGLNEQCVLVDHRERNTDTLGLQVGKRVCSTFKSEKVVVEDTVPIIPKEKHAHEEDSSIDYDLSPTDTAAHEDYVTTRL

[5] = Luminescence Cell-Based Dose Response HTS to Identify Inhibitors of 5'UTR Stem-Loop Driven Prion Protein mRNA Translation in H4 Neuroglioblastoma Cells. [Related pubchem assays: 1827 (Project Summary), 1813 (Primary HTS)]; assay type: functional
[6] = alpha-synuclein stem-loop luciferase translation blockers – H4 neuroglioma cells, luminescence, confirmation (AID 1988); assay type: functional, cell-based
[7] = luciferase reporter signal suppression in cells – H4 neuroglioma cells, luminescence, dose response (AID 1990); assay type: functional, cell-based
Genome polyprotein = Genome polyprotein (dengue virus type 2, UniProt P29990); assay: flavivirus cap methylation enzyme inhibition – biochemical, confirmation dose response, primary screen (AID 588689); assay type: functional
[8] = biological target: T2, Carboxy-terminal domain RNA polymerase II polypeptide A small phosphatase 1 (Homo sapiens, UniProt Q9GZU7); assay: CTDSP1 inhibitors, concentration-response, biochemical, absorbance readout, ultra-high-throughput screen actives (AID 540297); assay type: functional
T2 sequence (Q9GZU7 whole entry): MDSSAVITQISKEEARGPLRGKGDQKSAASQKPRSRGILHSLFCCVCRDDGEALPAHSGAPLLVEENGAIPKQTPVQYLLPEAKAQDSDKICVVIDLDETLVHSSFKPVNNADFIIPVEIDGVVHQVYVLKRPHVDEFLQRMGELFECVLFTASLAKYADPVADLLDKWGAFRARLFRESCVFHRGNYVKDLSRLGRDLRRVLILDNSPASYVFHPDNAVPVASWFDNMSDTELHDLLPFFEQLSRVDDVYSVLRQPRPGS

[9] = biological target: T3, Ubiquitin-conjugating enzyme E2 N (Homo sapiens, UniProt P61088); assay type: functional;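 further: Dose-response confirmation in a TR-FRET assay detecting UBC13-driven polyubiquitin chain formation, inhibition measured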
T3 sequence (P61088 whole entry): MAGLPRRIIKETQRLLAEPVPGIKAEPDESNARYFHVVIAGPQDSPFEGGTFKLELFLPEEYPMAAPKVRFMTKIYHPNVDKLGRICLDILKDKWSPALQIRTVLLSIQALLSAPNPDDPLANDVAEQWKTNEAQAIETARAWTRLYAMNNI

[10] = biological target: T4, DNA repair protein RAD52 homolog (Homo sapiens, UniProt P43351); assay type: functional, biochemical
T4 sequence (P43351 whole entry): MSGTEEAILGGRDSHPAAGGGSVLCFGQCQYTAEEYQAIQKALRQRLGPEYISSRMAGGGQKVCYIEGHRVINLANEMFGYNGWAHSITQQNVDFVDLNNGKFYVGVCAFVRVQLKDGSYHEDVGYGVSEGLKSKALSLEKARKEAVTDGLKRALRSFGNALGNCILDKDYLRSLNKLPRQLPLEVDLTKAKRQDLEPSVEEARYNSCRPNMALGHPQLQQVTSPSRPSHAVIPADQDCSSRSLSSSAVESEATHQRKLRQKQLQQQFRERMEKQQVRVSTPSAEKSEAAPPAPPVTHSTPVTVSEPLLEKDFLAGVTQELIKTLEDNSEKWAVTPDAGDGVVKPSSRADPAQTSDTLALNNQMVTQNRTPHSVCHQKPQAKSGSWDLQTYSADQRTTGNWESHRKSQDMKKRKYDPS

[11] = Dd2 malaria parasite growth inhibition potency – SYBR Green, dry powder samples, dose response (AID 1159566); assay type: functional, cell-based;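 further: potency for growth inhibition with lower SYBR green DNA signal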
[12] = growth inhibition of yeast DHODH-expressing 3D7 parasites – SYBR Green, dry powder samples, dose response (AID 1159570); assay type: functional, cell-based;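 further: parasite growth measured after 72 hours of compound exposure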
[13] = P. falciparum Dd2 growth inhibitors, dose response, SYBR Green, cherry-picked samples (AID 1159567); assay type: functional, cell-based
[14] = growth inhibition of PfATP4-mutant resistant parasites – NITD609-resistant line, SYBR Green, dry powder, dose response (AID 1159571); assay type: functional, cell-based;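 further: parasites synchronized at ring stage by sorbitol before testing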
[15] = biological target: Luciferin 4-monooxygenase (Photinus pyralis, UniProt P08659); assay: inhibition of purified Photinus pyralis luciferase – biochemical, luminescence, dose response (AID 1891)
[16] = HEK-293T cell viability reduction – luminescence, B-cell screen hits, cytotoxicity control for BCR NF-kB inhibitor project, dose response (AID 489021); assay type: functional, cell-based;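 further: HEK-293T cells carrying an NF-kB luciferase reporter; cells exposed to compound for about 14 hours before viability readout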
[17] = Luminescence Cell-Based Dose Confirmation HTS to Identify Inhibitors of Platelet Dense Granule Release. [Related pubchem assays: 1663 (Primary HTS), 1678 (Summary of Project)]; assay type: functional

Chain of Paired box protein Pax-8 (Q06710 whole entry): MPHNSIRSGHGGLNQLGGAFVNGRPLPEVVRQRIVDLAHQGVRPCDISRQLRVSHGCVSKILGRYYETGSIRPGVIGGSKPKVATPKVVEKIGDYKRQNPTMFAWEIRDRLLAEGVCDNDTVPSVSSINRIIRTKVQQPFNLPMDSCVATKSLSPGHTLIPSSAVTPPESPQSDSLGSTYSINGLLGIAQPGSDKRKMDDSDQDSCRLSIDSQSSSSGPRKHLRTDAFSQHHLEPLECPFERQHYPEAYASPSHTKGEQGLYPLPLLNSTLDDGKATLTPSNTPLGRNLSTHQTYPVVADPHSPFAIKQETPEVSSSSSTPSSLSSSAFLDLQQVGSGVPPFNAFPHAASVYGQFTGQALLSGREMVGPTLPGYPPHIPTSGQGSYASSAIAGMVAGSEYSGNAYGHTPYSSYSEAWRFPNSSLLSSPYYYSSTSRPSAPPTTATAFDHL
Chain of Genome polyprotein (P29990 2492-3391 limits assumed): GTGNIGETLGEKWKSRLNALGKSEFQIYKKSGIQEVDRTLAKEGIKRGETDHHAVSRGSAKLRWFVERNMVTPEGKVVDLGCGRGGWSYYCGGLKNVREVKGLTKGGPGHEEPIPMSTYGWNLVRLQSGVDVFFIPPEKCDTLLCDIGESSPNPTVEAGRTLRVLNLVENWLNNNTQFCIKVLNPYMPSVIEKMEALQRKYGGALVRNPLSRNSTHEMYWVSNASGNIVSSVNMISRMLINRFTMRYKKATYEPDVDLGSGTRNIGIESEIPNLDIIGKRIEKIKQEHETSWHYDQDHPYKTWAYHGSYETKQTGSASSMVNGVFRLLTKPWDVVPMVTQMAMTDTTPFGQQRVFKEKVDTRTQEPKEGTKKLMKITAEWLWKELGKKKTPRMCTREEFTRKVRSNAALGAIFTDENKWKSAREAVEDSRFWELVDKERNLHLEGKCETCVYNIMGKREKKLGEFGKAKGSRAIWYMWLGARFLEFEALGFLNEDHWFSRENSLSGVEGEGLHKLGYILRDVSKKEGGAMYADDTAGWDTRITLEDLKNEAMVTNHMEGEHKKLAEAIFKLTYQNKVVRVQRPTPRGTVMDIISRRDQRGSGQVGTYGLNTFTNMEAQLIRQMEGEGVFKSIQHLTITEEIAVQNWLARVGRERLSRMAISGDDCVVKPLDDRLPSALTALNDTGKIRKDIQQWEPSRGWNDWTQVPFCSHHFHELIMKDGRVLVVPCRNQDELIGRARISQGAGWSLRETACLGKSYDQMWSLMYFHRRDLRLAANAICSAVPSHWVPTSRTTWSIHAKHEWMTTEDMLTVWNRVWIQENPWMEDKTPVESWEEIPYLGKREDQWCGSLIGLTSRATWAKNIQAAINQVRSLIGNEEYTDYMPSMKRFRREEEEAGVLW
Chain of Luciferin 4-monooxygenase (P08659 whole entry): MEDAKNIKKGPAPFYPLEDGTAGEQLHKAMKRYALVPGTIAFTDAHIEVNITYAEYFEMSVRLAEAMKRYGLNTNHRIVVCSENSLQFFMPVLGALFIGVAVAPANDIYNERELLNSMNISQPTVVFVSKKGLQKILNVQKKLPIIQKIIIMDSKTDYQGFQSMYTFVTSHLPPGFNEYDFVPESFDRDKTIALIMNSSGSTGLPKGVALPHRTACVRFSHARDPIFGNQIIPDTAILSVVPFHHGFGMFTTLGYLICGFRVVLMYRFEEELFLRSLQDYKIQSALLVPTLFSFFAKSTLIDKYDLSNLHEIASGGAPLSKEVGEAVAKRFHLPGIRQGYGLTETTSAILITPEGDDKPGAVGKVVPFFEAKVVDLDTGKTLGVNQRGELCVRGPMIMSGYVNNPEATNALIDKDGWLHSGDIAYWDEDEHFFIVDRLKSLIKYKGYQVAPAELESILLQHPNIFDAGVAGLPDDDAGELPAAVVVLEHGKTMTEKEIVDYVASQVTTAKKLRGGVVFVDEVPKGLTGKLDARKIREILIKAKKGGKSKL

NC(=O)c1cc2ccccc2o/c1=N\NC(=O)c1ccc(F)cc1
IC50 (H9c2): > 79 µM (inactive)

CC(C)NC(=O)N(C)C[C@H]1OCCCC[C@@H](C)Oc2ccc(NC(=O)Nc3ccc(C(F)(F)F)cc3)cc2C(=O)N([C@@H](C)CO)C[C@H]1C
AC50 [1]: 48.9 µM (active)
AC50 [2]: 32.7 µM (active)
AC50 (Paired box protein Pax-8): 8.11 µM (active)

CCCOc1ccc(C(=O)NNC(=S)NC(=O)c2ccccc2)cc1
EC50 [3]: 0.54 µM (active)
EC50 (Streptococcus): 0.762 µM (active)
EC50 [4]: 3.35 µM (active)
EC50 [5]: 14.5 µM (active)
EC50 [6]: > 120 µM (not active)
EC50 [7]: 12.5 µM (active)

Cc1ccc(S(=O)(=O)Nc2ccc3c(c2)C(=O)N([C@@H](C)CO)C[C@H](C)[C@H](CN(C)Cc2ccc(C(F)(F)F)cc2)OCCCC[C@@H](C)O3)cc1
AC50 [1]: > 70 µM (inactive)
AC50 (Paired box protein Pax-8): 7.03 µM (active)

O=C(CN1C(=O)/C(=C2/SC(=S)N(CCS(=O)(=O)O)C2=O)c2ccccc21)Nc1cccc(Br)c1
IC50 (Genome polyprotein): 61.6 µM (active)
IC50 [8]: 3.22 µM (active)

COc1ccc(/C=N/NC(=O)C2COc3ccccc3O2)cc1OC (centres undefined)
EC50 [4]: 0.841 µM (active)

O=C(NCCCN1CCN(CCCNC(=O)c2ccc3c(c2)OCO3)CC1)c1ccc2c(c1)OCO2
EC50 [4]: 0.267 µM (active)

CC[C@H](C)Cc1cn([C@@H](CCCCN)C(=O)NCCCCCCCCCCC(=O)N2CCNCC2)nn1
IC50 [9]: > 20 µM (inactive)
AC50 [10]: 13.2 µM (active)

Cc1ccc(S(=O)(=O)N2CCN(C(=O)c3cc(O)nc4ccccc34)CC2)c(C)c1
IC50 (H9c2): > 79 µM (inactive)

COCCN1CCN(c2c3c(nc4cc(-c5cccc(F)c5)nn24)CCC3)CC1
IC50 (H9c2): 6.93 µM (active)

CCCc1cn(CC[C@@H]2CC[C@H](NS(=O)(=O)c3ccc(-c4ccccc4)cc3)[C@H](CO)O2)nn1
AC50 [11]: 0.332 µM (active)
AC50 [12]: 0.916 µM (active)
AC50 [13]: 1.39 µM (active)
AC50 [14]: 0.883 µM (active)

COc1ccc(-c2cc3nc(NCCCN(C)C)n(C)c(=O)c3s2)c(C)c1
AC50 [10]: 29.3 µM (active)

CCN1C(=O)Nc2cccc3cccc1c23
EC50 [15]: > 112 µM (not active)
IC50 [16]: > 80 µM (inactive)
EC50 [17]: 7.12 µM (active)

CSc1ccc(CCNC(=O)CSc2ccsc2[N+](=O)[O-])cc1
IC50 [8]: 7.88 µM (active)
